Results: US12605397B2, “Deoxy-cytidine or uridine derivatives for use in cancer therapies” (HEMISPHERIAN AS, priority 2019, dated 2026)
Entries after “also recorded” stand apart in the source; their conditions may differ.

What was measured:
Buffy A cells = assay: Survival assay (MTT), Buffy A; format: cell-based, human; conditions: Homo sapiens, Normal, Bone Marrow, 72 hours
Experimental: (§1) Cells were passed between 70 and 90% confluence.
(§2) Cells were incubated with the drugs for 72 hours.
(§3) The present inventors further investigated the extent to which these compounds kill normal human cells; low cytotoxicity against normal human cells is advantageous property for anti-cancer agents. The cytotoxicity of these compounds in various normal human cell lines was therefore investigated (Table 3). Cells were grown and the survival assay was performed as described above (Materials and Methods).

Buffy M cells = assay: Survival assay (MTT), Buffy M; format: cell-based, human; conditions: Homo sapiens, Normal, Bone Marrow, 72 hours
Experimental: as §1, §2, §3

human cancer cell lines = assay: Survival assay, range of human cancer cell lines; format: cell-based; conditions: cell lines of Table 1
Experimental: as §2
With the knowledge that 5-formyl-2′-deoxycytidine is cytotoxic to cervical carcinoma (HeLa) cells, the study was expanded in two directions: (i) a further compound was assessed: 5-carboxyl-2′-deoxycytidine; and (ii) their cytotoxic effects against a wide range of human cancer cell lines was assessed (Table 1).

MRC5 cells = assay: Survival assay (MTT), MRC5; format: cell-based, human; conditions: Homo sapiens
Experimental: as §1, §2, §3

HeLa cells = assay: Survival assay (MTT), HeLa; conditions: for IC50: Homo sapiens, HeLa; for cytotoxicity to HeLa cells (cell survival): three days of treatment, MTT, up to 100 μM
Experimental: (§4) Cell lines not mentioned above were grown in DMEM (Sigma, Cat.Nr. D6429) supplemented with 10% Fetal Bovine Serum and 100 U/ml penicillin 100 U/ml streptomycin. All cells were maintained in a 5% CO2, humidified, water-jacketed incubator at 37° C. Cells were passed between 70 and 90% confluence.
(§5) In a 96-well plate, 4000 cells in 100 μl of corresponding medium were seeded. The following day, drugs, diluted in DMSO, were added in 8 concentrations in triplicate. Drugs were added as a 4-fold dilution series starting from 100 μM. Cells were incubated with the drugs for 72 hours. Cell proliferation was assessed by MTT assay according to the manufacturer's protocol (ATCC, Cat. Nr. 30-1010K). Cell survival was normalized to the survival of cells treated with DMSO only. Experiment was performed three times, data represent mean of nine wells±SEM.
HeLa cells, grown as described above (Materials and Methods), were treated with 5-hydroxymethyl-2′-deoxycytidine and 5-formyl-2′-deoxycytidine. After three days of treatment with these compounds, cell survival was assessed as described above (Materials and Methods).
After three days of treatment with these compounds at a concentration of 100, 25, 6.25, 1.56, 0.39, 0.1, 0.02, or 0.006 μM, cell survival was assessed by MTT assay as described above (Materials and Methods).

22Rv1 cells = assay: Survival assay (MTT), 22Rv1; format: cell-based, human; conditions: Homo sapiens
Experimental: as §1, §2

[1] = tested on: SF-188 grade IV glioma cells; assay: Apoptosis flow cytometry (Annexin V / 7AAD); format: cell-based, human; conditions: SF-188 cells, 100 μM, 72 hours
Experimental: 100,000 cells were seeded in a 6-well plate and incubated with 100 μM of Temozolomide, 2′-Deoxy-5-hydroxymethylcytidine, 5-Formyl-2′-deoxycytidine or DMSO for 72 hours. Detection of apoptotic cells was assessed using Annexin V-7-amino-actinomycin D (7-AAD) Apoptotic Detection Kit (Nordic Biosite AS, Cat. Nr. 640922) according to manufacturer's protocol.
Fluorescence-activated cell sorting analysis was performed on LSR Fortessa (BD Biosciences) and data were analyzed on FlowJo software. All experiments were performed in triplicates.
It was therefore evaluated whether 5-formyl-2′deoxycytidine and 5-hydroxymethyl-2′-deoxycytidine were killing sensitive cells or causing them to be delayed in the cell cycle. SF-188 grade IV glioma cells were treated either with DMSO, temozolomide, 5-formyl-2′-deoxycytidine, or 5-hydroxymethyl-2′-deoxycytidine at the indicated concentration. […] A majority of SF-188 cells treated with 5-formyl-2′-deoxycytidine or 5-hydroxymethyl-2′-deoxycytidine were dead according to the flow cytometry profile (FIG. 2A).

G30 cells = assay: Survival assay (MTT), G30; format: cell-based, human; conditions: Homo sapiens, G30, Glioma, Grade IV, 72 hours
Experimental: as §1, §2

U87-MG cells = assay: Survival assay (MTT), U87-MG; conditions: for cytotoxicity to U87-MG cells (cell survival): up to 100 μM; for IC50: U87-MG; for rescue of cytotoxicity by the addition of thymidine: U87-MG cells; for cytotoxic effect in combination with Temozolomide: temozolomide resistant U87-MG cells
Experimental: as §4, §5
In a 96-well plate, 4000 cells in 100 μl of corresponding medium were seeded. The following day, drugs, diluted in DMSO, were added in triplicate at a concentration of 100, 25, 6.25, 1.56, 0.39, 0.1, 0.02, or 0.006 ┘M. Cells were incubated with the drugs for 72 hours. Cell proliferation was assessed by MTT assay according to the manufacturer's protocol (ATCC, Cat. Nr. 30-1010K). Cell survival was normalized to the survival of cells treated with DMSO only. Experiment was performed three times, data represent mean of nine wells±SEM.

Buffy C cells = assay: Survival assay (MTT), Buffy C; format: cell-based, human; conditions: Homo sapiens, Normal, Bone Marrow, 72 hours
Experimental: as §1, §2, §3

A375 cells = assay: Survival assay (MTT), A375; format: cell-based, human; conditions: Homo sapiens, A-375
Experimental: as §1, §2

SF188 cells = assay: Survival assay (MTT), SF188; format: cell-based, human; conditions: Homo sapiens, SF-188, SF188, Glioma, Grade IV, 72 hours
Experimental: as §1, §2

HAP1 cells = assay: Survival assay (MTT), HAP1; format: cell-based, human
Experimental: as §2

HCT-116 cells = assay: Survival assay (MTT), HCT-116; format: cell-based, human; conditions: Homo sapiens
Experimental: as §2

MCF-7 cells = assay: Survival assay (MTT), MCF-7; format: cell-based, human; conditions: Homo sapiens, MCF7
Experimental: as §1, §2

CB152 cells = assay: Survival assay (MTT), CB152; format: cell-based, human; conditions: Homo sapiens, CB152, Glioma, Grade IV, 72 hours
Experimental: as §1, §2

U937 cells = assay: Survival assay (MTT), U937; format: cell-based, human; conditions: Homo sapiens, U-937
Experimental: as §1, §2

Arpe19 cells = assay: Survival assay (MTT), Arpe19; format: cell-based, human; conditions: Homo sapiens
Experimental: as §2, §3

U3017 cells = assay: Survival assay (MTT), U3017; format: cell-based, human; conditions: Homo sapiens, U3017, Glioma, Grade IV, 72 hours
Experimental: as §1, §2

[2] = tested on: Hypoxanthine-guanine phosphoribosyltransferase (HPRT) gene in V79 cells; assay: HPRT mutagenicity assay; format: cell-based, Chinese Hamster; conditions: V79 cells, 1, 10, 100 μM, 24 hours
Experimental: HPRT mutagenicity assay was performed in V79 cells. 50,000 V79 cells were treated with three different concentrations of either d5hmC or d5fC (1, 10, 100 μM) for 24 hours in a 6 well plate. DMSO was used as a negative control. After the treatment, the cells were subcultured as needed in T75 flasks for 9 days to allow expression of HPRT-mutants. 10,000 cells were replated into 10 replica Petri dishes (100×15 mm) with selective media (2.5 μg/ml of 6TG).
Survival (relative plating efficiency) was determined by plating 200 cells into four replica Petri dishes (60×15 mm) without selective media. Colonies were fixed, Giemsa-stained and counted 7 days later. The mutant frequency is expressed as a total number of mutants counted on all plates divided by the number of cells seeded corrected by reseeding plating efficiency. Experiment was performed three times, data represent mean of triplicate±SEM.

[3] = tested on: normal (non-cancerous) human cell lines; assay: Survival assay, panel of normal (non-cancerous) human cell lines; format: cell-based; conditions: normal human cell lines of Table 3
Experimental: as §2, §3

MIA PaCa-2 cells = assay: Survival assay (MTT), MIA PaCa-2; format: cell-based, human; conditions: Homo sapiens, MIA PaCa-2
Experimental: as §1, §2

[4] = MRC5, 72 h, MRC5, Normal, Lung, 72 hours, MTT
[5] = MRC5, MRC5, Tables 6 and 7, unit inferred
[6] = 22Rv1, 22Rv1, Tables 6 and 7, unit inferred
[7] = 22Rv1, 72 h, 22Rv1, Prostate Carcinoma, 72 hours, MTT
[8] = Homo sapiens, U-87 MG, 72 h, Glioma, Grade IV, MTT
[9] = Homo sapiens, U-87 MG, Tables 6 and 7, unit inferred
[10] = A375, Malignant Melanoma, 72 hours, MTT
[11] = A375, Tables 6 and 7, unit inferred
[12] = Homo sapiens, HAP1, HAP1, Tables 6 and 7, unit inferred
[13] = HCT-116, 72 h, HCT-116, Colon Carcinoma, 72 hours, MTT
[14] = HCT-116, HCT-116, Tables 6 and 7, unit inferred
[15] = MCF-7, Epithelial Adenocarcinoma (Breast), 72 hours, MTT
[16] = MCF-7, Tables 6 and 7, unit inferred
[17] = U937, Tables 6 and 7, unit inferred
[18] = ARPE-19, 72 h, Arpe19, Normal, Ectoderm, 72 hours, MTT
[19] = ARPE-19, ARPE19, Tables 6 and 7, unit inferred
[20] = MIA PaCa-, Pancreatic Carcinoma, 72 hours, MTT
[21] = 72 hours, MTT, listed as 5-hydroxymethyl-2′-deoxycytidine

| SMILES | IC50 (Buffy A cells) | IC50 (Buffy M cells) | cytotoxicity in the cancer cell lines evaluated (human cancer cell lines) | IC50 (MRC5 cells; [4]) | IC50 (MRC5 cells; [5]) | IC50 (HeLa cells) | IC50 (HeLa cells; 72 h) | cytotoxicity to HeLa cells (cell survival) (HeLa cells) | IC50 (22Rv1 cells; [7]) | dead cells by flow cytometry (Annexin V, 7AAD) [1] | IC50 (G30 cells) | IC50 (A375 cells; [10]) | IC50 (SF188 cells) | IC50 (HCT-116 cells; [13]) | IC50 (MCF-7 cells; [15]) | IC50 (CB152 cells) | IC50 (U937 cells; U937, Lymophoma, 72 hours, MTT) | IC50 (Arpe19 cells; [18]) | IC50 (U3017 cells) | IC50 (MIA PaCa-2 cells; [20]) | further results |
| --- | --- | --- | --- | --- | --- | --- | --- | --- | --- | --- | --- | --- | --- | --- | --- | --- | --- | --- | --- | --- | --- |
| Nc1nc(=O)n([C@H]2C[C@H](O)[C@@H](CO)O2)cc1C=O [2d5fC, 5-formyl-2′-deoxycytidine] | > 25 µM | > 25 µM | cytotoxic to a wide range of human cancer cells | > 25 µM | ≥ 25 µM | 0.76 µM | 0.76 µM | markedly greater cytotoxic effect | > 25 µM | dead and not arrested at a cell cycle checkpoint | 18 µM | 3.19 µM | 28.2 µM | > 25 µM | 0.866 µM | > 100 µM | 0.954 µM | > 25 µM | > 100 µM | 1.14 µM | IC50 (22Rv1 cells; [6]): ≥ 25 µM; cytotoxicity to U87-MG cells (cell survival) (U87-MG cells; 72 hours, MTT): markedly more cytotoxic; IC50 (U87-MG cells; [8]): 0.334 µM; IC50 (U87-MG cells; [9]): 0.334 µM; rescue of cytotoxicity by the addition of thymidine (U87-MG cells; 72 hours, MTT): not rescued; cytotoxic effect in combination with Temozolomide (U87-MG cells; 72 hours, MTT, listed as 5-formyl-2′-deoxycytidine): synergistically; cytotoxic effect in combination with Temozolomide (U87-MG cells; 72 hours, MTT, listed as d5fC): more effective; IC50 (Buffy C cells): > 25 µM; IC50 (A375 cells; [11]): 3.19 µM; IC50 (HAP1 cells; Homo sapiens, HAP1, 72 h, HAP1, Chronic Myelogenous Leukemia (CML), 72 hours, MTT): > 25 µM; IC50 (HAP1 cells; [12]): ≥ 25 µM; IC50 (HCT-116 cells; [14]): ≥ 25 µM; IC50 (MCF-7 cells; [16]): 0.866 µM; IC50 (U937 cells; [17]): 0.954 µM; IC50 (Arpe19 cells; [19]): ≥ 25 µM; mutagenicity / genotoxicity (HPRT mutant frequency) [2]: not to be mutagenic; also recorded: not mutagens; cytotoxicity to normal cell lines [3]: cytotoxic only to one normal human cell line; IC50 (MIA PaCa-2 cells; Tables 6 and 7, unit inferred): 1.14 µM |
| Nc1nc(=O)n([C@H]2C[C@H](O)[C@@H](CO)O2)cc1CO [2d5hmC, 5-hydroxymethyl-2′-deoxycytidine] | > 25 µM | > 25 µM | only cytotoxic to two cell lines evaluated | > 25 µM | ≥ 25 µM | ≥ 25 µM | > 25 µM | did not differ from DMSO treated cells | > 25 µM | dead and not arrested at a cell cycle checkpoint | 28.1 µM | > 25 µM | 8.97 µM | > 25 µM | > 25 µM | > 100 µM | > 25 µM | > 25 µM | 14.1 µM | > 25 µM | IC50 (22Rv1 cells; [6]): ≥ 25 µM; cytotoxicity to U87-MG cells (cell survival) (U87-MG cells; [21]): cytotoxic; cytotoxicity to U87-MG cells (cell survival) (U87-MG cells; 72 hours, MTT, listed as d5hmC): markedly more cytotoxic; IC50 (U87-MG cells; [9]): 3.03 µM; rescue of cytotoxicity by the addition of thymidine (U87-MG cells; 72 hours, MTT): not rescued; IC50 (U87-MG cells; Glioma, Grade IV, 72 hours, MTT): > 0.334 µM; cytotoxic effect in combination with Temozolomide (U87-MG cells; [21]): synergistically; cytotoxic effect in combination with Temozolomide (U87-MG cells; 72 hours, MTT, listed as d5hmC): more effective; IC50 (Buffy C cells): > 25 µM; IC50 (A375 cells; [11]): ≥ 25 µM; IC50 (HAP1 cells; HAP1, Chronic Myelogenous Leukemia (CML), 72 hours, MTT): > 3.03 µM; IC50 (HAP1 cells; [12]): 6.53 µM; IC50 (HCT-116 cells; [14]): ≥ 25 µM; IC50 (MCF-7 cells; [16]): ≥ 25 µM; IC50 (U937 cells; [17]): ≥ 25 µM; IC50 (Arpe19 cells; [19]): ≥ 25 µM; mutagenicity / genotoxicity (HPRT mutant frequency) [2]: not to be mutagenic; also recorded: not mutagens; cytotoxicity to normal cell lines [3]: not cytotoxic to any of the normal cell lines evaluated; IC50 (MIA PaCa-2 cells; Tables 6 and 7, unit inferred): ≥ 25 µM |
| Cn1nnc2c(C(N)=O)ncn2c1=O [Temozolomide, 4-methyl-5-oxo-2,3,4,6,8-pentazabicyclo[4.3.0]nona-2,7,9-triene-9-carboxamide, reference compound] | – | – | – | > 25 µM | – | – | > 25 µM | – | > 25 µM | slight increase in the amount of dead cells | 21.6 µM | > 25 µM | > 100 µM | > 25 µM | > 25 µM | > 100 µM | 13.1 µM | > 25 µM | > 100 µM | > 25 µM | IC50 (U87-MG cells; [8]): > 25 µM |
